Laboratory results reported in US20240101540A1, “TARGETED PROTEIN DEGRADATION OF PARP14 FOR USE IN THERAPY” (Ribon Therapeutics, Inc., priority 2022, published 2024).
Counter-ions that a name gives are not always drawn.

The molecules below were run against T1, catalytic domain of human PARP14 (residues 1611 to 1801) with NanoLuc tag (Homo sapiens, UniProt Q460N5) (assay: NanoLuc assay for the degradation of PARP14 (NanoLuc-tagged PARP14 overexpressed in HEK-293T cells, 2 hours)). Details: Assay A (Example A): NanoLuc-tagged PARP14 degradation in HEK-293T cells.
T1 construct: expressed in transfected cells; host or cells: HEK-293T cells (ATCC), pcDNA3.1(-) vector
T1 sequence (Q460N5 1611-1801): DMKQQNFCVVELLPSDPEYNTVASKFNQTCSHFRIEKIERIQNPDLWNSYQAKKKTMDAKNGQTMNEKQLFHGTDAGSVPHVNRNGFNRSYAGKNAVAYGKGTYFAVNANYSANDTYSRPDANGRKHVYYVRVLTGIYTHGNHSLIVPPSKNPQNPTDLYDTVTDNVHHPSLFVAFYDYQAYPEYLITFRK
Format: cell-based

SMILES	DC50
O=C1CCC(Nc2ccc(N3CCN(CCN4CCC(COc5cc(F)c6c(=O)[nH]c(CSC7CCOCC7)nc6c5)CC4)CC3)cc2)C(=O)N1 (stereo not drawn) [Example 48, 3-((4-(4-(2-(4-(((5-fluoro-4-oxo-2-(((tetrahydro-2H-pyran-4-yl)thio)methyl)-3,4-dihydroquinazolin-7-yl)oxy)methyl)piperidin-1-yl)ethyl)piperazin-1-yl)phenyl)amino)piperidine-2,6-dione]	< 100 nM

Same assay, conditions: Assay A (Example A): NanoLuc-tagged PARP14 degradation in HEK-293T cells, read-out: DC50

SMILES	DC50
O=C1CCC(N2C(=O)c3ccc(N4CCN(CCN5CCC(COc6cc(F)c7c(=O)[nH]c(CSC8CCOCC8)nc7c6)CC5)CC4)cc3C2=O)C(=O)N1 (stereo not drawn) [Example 62, 2-(2,6-dioxopiperidin-3-yl)-5-(4-(2-(4-(((5-fluoro-4-oxo-2-(((tetrahydro-2H-pyran-4-yl)thio)methyl)-3,4-dihydroquinazolin-7-yl)oxy)methyl)piperidin-1-yl)ethyl)piperazin-1-yl)isoindoline-1,3-dione]	< 100 nM
O=C1CCC(Nc2cccc(N3CCN(CCN4CCC(COc5cc(F)c6c(=O)[nH]c(CSC7CCOCC7)nc6c5)CC4)CC3)c2)C(=O)N1 (stereo not drawn) [Example 63, 3-((3-(4-(2-(4-(((5-fluoro-4-oxo-2-(((tetrahydro-2H-pyran-4-yl)thio)methyl)-3,4-dihydroquinazolin-7-yl)oxy)methyl)piperidin-1-yl)ethyl)piperazin-1-yl)phenyl)amino)piperidine-2,6-dione]	< 100 nM
O=C1CCC(Oc2ccc(N3CCN(CCN4CCC(COc5cc(F)c6c(=O)[nH]c(CSC7CCOCC7)nc6c5)CC4)CC3)cc2)C(=O)N1 (stereo not drawn) [Example 65, 3-(4-(4-(2-(4-(((5-fluoro-4-oxo-2-(((tetrahydro-2H-pyran-4-yl)thio)methyl)-3,4-dihydroquinazolin-7-yl)oxy)methyl)piperidin-1-yl)ethyl)piperazin-1-yl)phenoxy)piperidine-2,6-dione]	< 100 nM
CN(c1ccc(N2CCN(CCN3CCC(COc4cc(F)c5c(=O)[nH]c(CSC6CCOCC6)nc5c4)CC3)CC2)cc1)C1CCC(=O)NC1=O (stereo not drawn) [Example 66, 3-((4-(4-(2-(4-(((5-fluoro-4-oxo-2-(((tetrahydro-2H-pyran-4-yl)thio)methyl)-3,4-dihydroquinazolin-7-yl)oxy)methyl)piperidin-1-yl)ethyl)piperazin-1-yl)phenyl)(methyl)amino)piperidine-2,6-dione]	< 100 nM
O=C1CCC(Nc2cccc(C3CCN(CCN4CCC(COc5cc(F)c6c(=O)[nH]c(CSC7CCOCC7)nc6c5)CC4)CC3)c2)C(=O)N1 (stereo not drawn) [Example 67, 3-((3-(1-(2-(4-(((5-fluoro-4-oxo-2-(((tetrahydro-2H-pyran-4-yl)thio)methyl)-3,4-dihydroquinazolin-7-yl)oxy)methyl)piperidin-1-yl)ethyl)piperidin-4-yl)phenyl)amino)piperidine-2,6-dione]	< 100 nM
O=C1CCC(Nc2ccc(N3CCN(CCN4CCC(COc5cc(F)c6c(=O)[nH]c(COC7CCOCC7)nc6c5)CC4)CC3)cc2)C(=O)N1 (stereo not drawn) [Example 68, 3-((4-(4-(2-(4-(((5-fluoro-4-oxo-2-(((tetrahydro-2H-pyran-4-yl)oxy)methyl)-3,4-dihydroquinazolin-7-yl)oxy)methyl)piperidin-1-yl)ethyl)piperazin-1-yl)phenyl)amino)piperidine-2,6-dione]	< 100 nM
O=C1CCC(Nc2ccc(N3CCN(CCN4CCC(COc5cc(F)c6c(=O)[nH]c(CSC7CCOCC7)nc6c5)CC4)CC3)nc2)C(=O)N1 (stereo not drawn) [Example 69, 3-((6-(4-(2-(4-(((5-fluoro-4-oxo-2-(((tetrahydro-2H-pyran-4-yl)thio)methyl)-3,4-dihydroquinazolin-7-yl)oxy)methyl)piperidin-1-yl)ethyl)piperazin-1-yl)pyridin-3-yl)amino)piperidine-2,6-dione]	< 100 nM
O=C1CCN(c2ccc(N3CCN(CCN4CCC(COc5cc(F)c6c(=O)[nH]c(CSC7CCOCC7)nc6c5)CC4)CC3)cc2)C(=O)N1 [Example 70, 1-(4-(4-(2-(4-(((5-fluoro-4-oxo-2-(((tetrahydro-2H-pyran-4-yl)thio)methyl)-3,4-dihydroquinazolin-7-yl)oxy)methyl)piperidin-1-yl)ethyl)piperazin-1-yl)phenyl)dihydropyrimidine-2,4(1H,3H)-dione]	< 100 nM
O=C1CCC(Nc2ccc(N3C4CC3CN(CCN3CCC(COc5cc(F)c6c(=O)[nH]c(CSC7CCOCC7)nc6c5)CC3)C4)cc2)C(=O)N1 (stereo not drawn) [Example 71, 3-((4-(3-(2-(4-(((5-fluoro-4-oxo-2-(((tetrahydro-2H-pyran-4-yl)thio)methyl)-3,4-dihydroquinazolin-7-yl)oxy)methyl)piperidin-1-yl)ethyl)-3,6-diazabicyclo[3.1.1]heptan-6-yl)phenyl)amino)piperidine-2,6-dione]	< 100 nM
O=C1CCC(N2C(=O)c3ccc(C#CC4CCN(CCN5CCC(COc6cc(F)c7c(=O)[nH]c(CSC8CCOCC8)nc7c6)CC5)CC4)cc3C2=O)C(=O)N1 (stereo not drawn) [Example 72, 2-(2,6-dioxopiperidin-3-yl)-5-((1-(2-(4-(((5-fluoro-4-oxo-2-(((tetrahydro-2H-pyran-4-yl)thio)methyl)-3,4-dihydroquinazolin-7-yl)oxy)methyl)piperidin-1-yl)ethyl)piperidin-4-yl)ethynyl)isoindoline-1,3-dione]	< 100 nM

Further lines, results first:

DC50	SMILES
< 100 nM	O=C1CCC(Nc2ccc(C3CCN(CCN4CCC(COc5cc(F)c6c(=O)[nH]c(CSC7CCOCC7)nc6c5)CC4)CC3)cc2)C(=O)N1 (stereo not drawn) [Example 49, 3-((4-(1-(2-(4-(((5-fluoro-4-oxo-2-(((tetrahydro-2H-pyran-4-yl)thio)methyl)-3,4-dihydroquinazolin-7-yl)oxy)methyl)piperidin-1-yl)ethyl)piperidin-4-yl)phenyl)amino)piperidine-2,6-dione]
< 100 nM	O=C1CCC(Nc2ccc(N3CCN(CCN4CCC(COc5cc(F)c6c(=O)[nH]c(CSC7CCOCC7)nc6c5)CC4)CC3)c(C(F)(F)F)c2)C(=O)N1 (stereo not drawn) [Example 50, 3-((4-(4-(2-(4-(((5-fluoro-4-oxo-2-(((tetrahydro-2H-pyran-4-yl)thio)methyl)-3,4-dihydroquinazolin-7-yl)oxy)methyl)piperidin-1-yl)ethyl)piperazin-1-yl)-3-(trifluoromethyl)phenyl)amino)piperidine-2,6-dione]
< 100 nM	O=C1CCC(Nc2ccc(N3CC(N4CCC(COc5cc(F)c6c(=O)[nH]c(CSC7CCOCC7)nc6c5)CC4)C3)cc2)C(=O)N1 (stereo not drawn) [Example 51, 3-((4-(3-(4-(((5-fluoro-4-oxo-2-(((tetrahydro-2H-pyran-4-yl)thio)methyl)-3,4-dihydroquinazolin-7-yl)oxy)methyl)piperidin-1-yl)azetidin-1-yl)phenyl)amino)piperidine-2,6-dione]
< 100 nM	O=C1CCC(Nc2ccc(N3CC(N4CCC(COc5cc(F)c6c(=O)[nH]c(CSC7CCOCC7)nc6c5)C(F)(F)C4)C3)cc2)C(=O)N1 (stereo not drawn) [Example 52, 3-((4-(3-(3,3-difluoro-4-(((5-fluoro-4-oxo-2-(((tetrahydro-2H-pyran-4-yl)thio)methyl)-3,4-dihydroquinazolin-7-yl)oxy)methyl)piperidin-1-yl)azetidin-1-yl)phenyl)amino)piperidine-2,6-dione formate salt]
< 100 nM	O=C1CCC(Nc2ccc(N3CC(CN4CCC(COc5cc(F)c6c(=O)[nH]c(CSC7CCOCC7)nc6c5)CC4)C3)cc2)C(=O)N1 (stereo not drawn) [Example 53, 3-((4-(3-((4-(((5-fluoro-4-oxo-2-(((tetrahydro-2H-pyran-4-yl)thio)methyl)-3,4-dihydroquinazolin-7-yl)oxy)methyl)piperidin-1-yl)methyl)azetidin-1-yl)phenyl)amino)piperidine-2,6-dione]
< 100 nM	O=C1CCN(c2cccc(N3CC(CN4CCC(COc5cc(F)c6c(=O)[nH]c(CSC7CCOCC7)nc6c5)CC4)C3)c2)C(=O)N1 [Example 54, 1-(3-(3-((4-(((5-fluoro-4-oxo-2-(((tetrahydro-2H-pyran-4-yl)thio)methyl)-3,4-dihydroquinazolin-7-yl)oxy)methyl)piperidin-1-yl)methyl)azetidin-1-yl)phenyl)dihydropyrimidine-2,4(1H,3H)-dione formate salt]
< 100 nM	O=C1CCC(Nc2ccc(OCCN3CCC(COc4cc(F)c5c(=O)[nH]c(CSC6CCOCC6)nc5c4)CC3)cc2)C(=O)N1 (stereo not drawn) [Example 58, 3-((4-(2-(4-(((5-fluoro-4-oxo-2-(((tetrahydro-2H-pyran-4-yl)thio)methyl)-3,4-dihydroquinazolin-7-yl)oxy)methyl)piperidin-1-yl)ethoxy)phenyl)amino)piperidine-2,6-dione]
< 100 nM	O=C1CCC(N2Cc3cc(N4CCN(CCN5CCC(COc6cc(F)c7c(=O)[nH]c(CSC8CCOCC8)nc7c6)CC5)CC4)ccc3C2=O)C(=O)N1 (stereo not drawn) [Example 59, 3-(5-(4-(2-(4-(((5-fluoro-4-oxo-2-(((tetrahydro-2H-pyran-4-yl)thio)methyl)-3,4-dihydroquinazolin-7-yl)oxy)methyl)piperidin-1-yl)ethyl)piperazin-1-yl)-1-oxoisoindolin-2-yl)piperidine-2,6-dione]
< 100 nM	O=C1CCC(N2Cc3c(cccc3N3CCN(CCN4CCC(COc5cc(F)c6c(=O)[nH]c(CSC7CCOCC7)nc6c5)CC4)CC3)C2=O)C(=O)N1 (stereo not drawn) [Example 60, 3-(4-(4-(2-(4-(((5-fluoro-4-oxo-2-(((tetrahydro-2H-pyran-4-yl)thio)methyl)-3,4-dihydroquinazolin-7-yl)oxy)methyl)piperidin-1-yl)ethyl)piperazin-1-yl)-1-oxoisoindolin-2-yl)piperidine-2,6-dione]
< 100 nM	O=C1CCC(N2C(=O)c3cccc(N4CCN(CCN5CCC(COc6cc(F)c7c(=O)[nH]c(CSC8CCOCC8)nc7c6)CC5)CC4)c3C2=O)C(=O)N1 (stereo not drawn) [Example 61, 2-(2,6-dioxopiperidin-3-yl)-4-(4-(2-(4-(((5-fluoro-4-oxo-2-(((tetrahydro-2H-pyran-4-yl)thio)methyl)-3,4-dihydroquinazolin-7-yl)oxy)methyl)piperidin-1-yl)ethyl)piperazin-1-yl)isoindoline-1,3-dione]
